Reference: ChEMBL document CHEMBL1201862, “PubChem BioAssay data set” (2004)
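96-well plates; 48 h exposure; 5 concentrations. Endpoints by linear interpolation between flanking doses. Not reached: highest tested concentration assigned. The concentration for 50% growth inhibition is given as GI50.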 The source made the active and inactive calls. Cut-off read from the data, not from the text of the source: active = GI50 up to about 1.1 µM and inactive = higher.

Tests used:
Experiment in all cases: NCI tumour cell line growth inhibition, 48 h
UACC-62 = test system: UACC-62
KM12 = test system: KM12
HCT-15 = test system: HCT-15
HL-60 = test system: HL-60
OVCAR-4 = test system: OVCAR-4
LOX IMVI = test system: LOX IMVI
UO-31 = test system: UO-31
DMS-114 = test system: DMS-114
SNB-75 = test system: SNB-75
DMS-273 = test system: DMS-273
NCI-H460 = test system: NCI-H460
SNB-78 = test system: SNB-78
SR = test system: SR
SF-268 = test system: SF-268
SNB-19 = test system: SNB-19
A498 = test system: A498
DU-145 = test system: DU-145
T47D = test system: T47D
NCI/ADR-RES = test system: NCI/ADR-RES
MCF7 = test system: MCF7

| Compound | GI50 (UACC-62) | GI50 (KM12) | GI50 (HCT-15) [µM] | GI50 (HL-60) | GI50 (OVCAR-4) | GI50 (LOX IMVI) | GI50 (UO-31) | GI50 (DMS-114) | GI50 (SNB-75) | GI50 (DMS-273) | GI50 (NCI-H460) | GI50 (SNB-78) | GI50 (SR) | GI50 (SF-268) | GI50 (SNB-19) | GI50 (A498) | GI50 (DU-145) | GI50 (T47D) | GI50 (NCI/ADR-RES) | GI50 (MCF7) |
| --- | --- | --- | --- | --- | --- | --- | --- | --- | --- | --- | --- | --- | --- | --- | --- | --- | --- | --- | --- | --- |
| O=C1NC2(C=Cc3c(ccc4ccccc34)O2)Oc2ccccc21 (centres undefined) | 19.2 µM (inactive) | 5.18 µM (inactive) | 7.46 | 4.81 µM (inactive) | 19.1 µM (inactive) | 12.9 µM (inactive) | 1.76 µM (inactive) | 13.2 µM (inactive) | 15.1 µM (inactive) | 9.51 µM (inactive) | 27.2 µM (inactive) | 20.7 µM (inactive) | 5.15 µM (inactive) | 17.2 µM (inactive) | 20.7 µM (inactive) | – | – | – | – | – |
| COc1ccc(-c2[nH]c3ccccc3c2CCNS(=O)(=O)c2ccc(C)cc2)cc1 | > 8.39 µM (inactive) | 6.82 µM (inactive) | 7.6 | 6.7 µM (inactive) | – | > 10 µM (inactive) | 4.92 µM (inactive) | > 9.55 µM (inactive) | > 10 µM (inactive) | 7.48 µM (inactive) | 6.17 µM (inactive) | > 10 µM (inactive) | > 10 µM (inactive) | > 10 µM (inactive) | > 10 µM (inactive) | > 10 µM (inactive) | – | – | – | – |
| CC1CC2C(=O)N(c3ccccc3)C(=O)C2c2[nH]c3ccccc3c21 (centres undefined) | > 100 µM (inactive) | 58.5 µM (inactive) | > 100 | 31.8 µM (inactive) | 41.8 µM (inactive) | 45.5 µM (inactive) | – | 30.7 µM (inactive) | 28.9 µM (inactive) | 79.4 µM (inactive) | 63.7 µM (inactive) | > 100 µM (inactive) | 29.2 µM (inactive) | > 100 µM (inactive) | – | > 100 µM (inactive) | – | – | – | – |
| O=C1CCC(=O)c2ccccc2N1 | – | > 100 µM (inactive) | > 100 | > 100 µM (inactive) | > 100 µM (inactive) | > 100 µM (inactive) | > 100 µM (inactive) | > 100 µM (inactive) | > 100 µM (inactive) | > 100 µM (inactive) | > 100 µM (inactive) | – | – | > 100 µM (inactive) | > 100 µM (inactive) | > 100 µM (inactive) | – | – | – | – |
| CCc1ccccc1NC(=O)C(=O)C(C(=O)c1ccc(OC)cc1)c1ccc(OC)cc1 (centres undefined) | > 100 µM (inactive) | > 100 µM (inactive) | > 100 | > 100 µM (inactive) | > 100 µM (inactive) | > 100 µM (inactive) | > 100 µM (inactive) | > 100 µM (inactive) | – | > 100 µM (inactive) | > 100 µM (inactive) | > 100 µM (inactive) | – | > 100 µM (inactive) | > 100 µM (inactive) | > 100 µM (inactive) | – | – | – | – |
| CCOC(=O)N1CCc2cc(OC)c(OC)c3c2C1CC3=O (centres undefined) | > 100 µM (inactive) | > 100 µM (inactive) | > 100 | > 100 µM (inactive) | > 100 µM (inactive) | > 100 µM (inactive) | > 100 µM (inactive) | > 100 µM (inactive) | > 100 µM (inactive) | > 100 µM (inactive) | > 100 µM (inactive) | > 100 µM (inactive) | > 100 µM (inactive) | > 100 µM (inactive) | > 100 µM (inactive) | > 100 µM (inactive) | – | – | – | – |
| Cc1nc2ccccc2c(=O)n1-c1ccccc1F | > 100 µM (inactive) | > 100 µM (inactive) | > 100 | > 100 µM (inactive) | > 100 µM (inactive) | > 100 µM (inactive) | 74.3 µM (inactive) | > 100 µM (inactive) | 30.2 µM (inactive) | > 100 µM (inactive) | > 100 µM (inactive) | > 100 µM (inactive) | – | > 100 µM (inactive) | > 100 µM (inactive) | > 100 µM (inactive) | – | – | – | – |
| COC(=O)c1c(CC#N)cccc1CC#N | > 100 µM (inactive) | > 100 µM (inactive) | > 100 | > 100 µM (inactive) | > 100 µM (inactive) | > 100 µM (inactive) | > 100 µM (inactive) | > 100 µM (inactive) | > 100 µM (inactive) | > 100 µM (inactive) | > 100 µM (inactive) | – | > 100 µM (inactive) | > 100 µM (inactive) | > 100 µM (inactive) | – | – | – | – | – |
| O=C1c2ccccc2C(=O)N1C/C=N/NS(=O)(=O)c1ccc(F)cc1 | > 100 µM (inactive) | > 100 µM (inactive) | > 100 | > 100 µM (inactive) | > 100 µM (inactive) | > 100 µM (inactive) | > 100 µM (inactive) | > 100 µM (inactive) | 59 µM (inactive) | > 100 µM (inactive) | – | – | > 100 µM (inactive) | > 100 µM (inactive) | > 100 µM (inactive) | – | – | – | – | – |
| O=C1c2ccccc2N2OC3(N4CCCC4)CCCC3C12c1ccccc1 (centres undefined) | 74.3 µM (inactive) | – | > 100 | 43.3 µM (inactive) | 29.6 µM (inactive) | – | > 100 µM (inactive) | 83.4 µM (inactive) | > 100 µM (inactive) | 67.6 µM (inactive) | – | > 100 µM (inactive) | 59.4 µM (inactive) | > 100 µM (inactive) | > 100 µM (inactive) | > 100 µM (inactive) | – | – | – | – |
| Cn1nc(-c2ccccc2)c(N=[N+]=[N-])cc1=O | > 100 µM (inactive) | > 100 µM (inactive) | > 100 | > 100 µM (inactive) | > 100 µM (inactive) | > 100 µM (inactive) | > 100 µM (inactive) | > 100 µM (inactive) | – | > 100 µM (inactive) | > 100 µM (inactive) | – | > 100 µM (inactive) | > 100 µM (inactive) | > 100 µM (inactive) | > 100 µM (inactive) | – | – | – | – |
| N#C/C(=C1\OC(=N)C(c2ccc(Cl)cc2)=C1O)c1ccc(Cl)cc1 | 14.2 µM (inactive) | 16.6 µM (inactive) | – | 13.3 µM (inactive) | 15.9 µM (inactive) | 16 µM (inactive) | 16.2 µM (inactive) | 14.8 µM (inactive) | 17.5 µM (inactive) | 13.5 µM (inactive) | 17.3 µM (inactive) | 12.8 µM (inactive) | 18.7 µM (inactive) | 36.6 µM (inactive) | 19.6 µM (inactive) | 17.2 µM (inactive) | – | – | – | – |
| COC(=O)OCC1OC(N2C(=O)NC(=O)C(Br)C2N=[N+]=[N-])CC1OC(=O)OC (centres undefined) | > 100 µM (inactive) | > 100 µM (inactive) | > 100 | – | > 100 µM (inactive) | > 100 µM (inactive) | > 100 µM (inactive) | > 100 µM (inactive) | > 100 µM (inactive) | > 100 µM (inactive) | > 100 µM (inactive) | > 100 µM (inactive) | – | > 100 µM (inactive) | > 100 µM (inactive) | – | – | – | – | – |
| COc1ccc2c(c1)[n+]([O-])c(C(=O)C/C(=N/NC(=O)C[N+](C)(C)C)C(=O)Nc1cccc(C)c1C)c(C)[n+]2[O-] | > 100 µM (inactive) | 6.34 µM (inactive) | > 100 | – | > 100 µM (inactive) | – | > 100 µM (inactive) | > 100 µM (inactive) | > 100 µM (inactive) | > 100 µM (inactive) | > 100 µM (inactive) | > 100 µM (inactive) | – | > 100 µM (inactive) | > 100 µM (inactive) | > 100 µM (inactive) | – | – | – | – |
| Cn1c(=O)c2c(ncn2CCCCn2ccnc2[N+](=O)[O-])n(C)c1=O | > 100 µM (inactive) | > 100 µM (inactive) | > 100 | > 100 µM (inactive) | > 100 µM (inactive) | > 100 µM (inactive) | > 100 µM (inactive) | > 100 µM (inactive) | 38.3 µM (inactive) | > 100 µM (inactive) | > 100 µM (inactive) | > 100 µM (inactive) | > 100 µM (inactive) | > 100 µM (inactive) | > 100 µM (inactive) | – | – | – | – | – |
| C=CC(=O)NCCSCCCOC1(C(=O)O)CC(O)C(NC(C)=O)C(C(O)C(O)CO)O1 (centres undefined) | > 100 µM (inactive) | > 100 µM (inactive) | > 100 | > 100 µM (inactive) | > 100 µM (inactive) | > 100 µM (inactive) | > 100 µM (inactive) | > 100 µM (inactive) | – | > 100 µM (inactive) | > 100 µM (inactive) | > 100 µM (inactive) | > 100 µM (inactive) | – | > 100 µM (inactive) | – | – | – | – | – |
| CC(=O)OC[C@]1(O)CC[C@@]23CC1C[C@@H]2CCC1C(C)(C)CCC[C@@]13C (some centres undefined) | 13.4 µM (inactive) | 13 µM (inactive) | 15.8 | 4.95 µM (inactive) | 15.9 µM (inactive) | 11.1 µM (inactive) | 16.1 µM (inactive) | 11.2 µM (inactive) | 16.1 µM (inactive) | 3.65 µM (inactive) | 14.7 µM (inactive) | 16.1 µM (inactive) | 8.89 µM (inactive) | 14.9 µM (inactive) | 14.5 µM (inactive) | – | – | – | – | – |
| CC(=O)NC1C(OCc2ccccc2)OC(CO)C(O)C1OC(C)C(=O)NC(C)C(=O)N[C@@H](CCC(=O)OCCCNC1c2ccccc2Nc2cccc([N+](=O)[O-])c21)C(N)=O (some centres undefined) | < 0.01 µM (active) | < 0.01 µM (active) | 0.0028 | < 0.0117 µM (active) | < 0.0111 µM (active) | 0.0269 µM (active) | < 0.01 µM (active) | – | 0.0135 µM (active) | < 0.01 µM (active) | < 0.01 µM (active) | 0.0121 µM (active) | < 0.01 µM (active) | < 0.01 µM (active) | < 0.0124 µM (active) | < 0.01 µM (active) | 0.0314 µM (active) | 0.174 µM (active) | 0.0145 µM (active) | 0.0124 µM (active) |
| CCCCCCCCCCCCCCCCCC[N+](C)(C)Cc1ccc(C[N+](C)(C)CCCCCCCCCCCCCCCCCC)cc1 | 21.9 µM (inactive) | 12.4 µM (inactive) | 28 | – | 9.53 µM (inactive) | 13.6 µM (inactive) | 27.7 µM (inactive) | 9.46 µM (inactive) | 3.15 µM (inactive) | 16.1 µM (inactive) | 17.6 µM (inactive) | 18.8 µM (inactive) | 2.39 µM (inactive) | 21.7 µM (inactive) | 14.1 µM (inactive) | 22.8 µM (inactive) | – | – | – | – |
